In the experiment the target is T1, Glutaredoxin-1 (Human, UniProt P35754).
T1 sequence (P35754 whole entry): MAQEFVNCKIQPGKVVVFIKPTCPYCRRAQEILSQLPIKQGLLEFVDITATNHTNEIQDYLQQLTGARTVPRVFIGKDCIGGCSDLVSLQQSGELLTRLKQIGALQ
Description: GRX Assay. The following applies: pH 8; 25 °C. The protocol: Human GRX-1 (0.25 unit/mL) was incubated at 25 °C with increasing concentrations of 2-AAPA (25, 50, 100, and 200 μM) and BSA (1 mg/mL). Aliquots were withdrawn for determination of GRX activity at 3, 10, and 20 min. Control incubations without 2-AAPA were conducted in parallel. The aliquots were added to the GRX assay solution, and enzyme activity was determined from a coupled reaction with GR based on a literature reported procedure with minor modification. In this assay, a mixed disulfide between GSH and the mercaptoethanol moiety derived from 2-hydroxyethyldisulfide (HED) served as the substrate for GRX; briefly GSH (10 mM) and HED (7 mM) were premixed in water for 5 min before transferring onto ice. The final GRXassay solution contained GSH (1 mM), HED (0.7mM), GR (0.02 units/mL), NADPH (0.2 mM), and bovine serum albumin (BSA, 1 mg/mL) in Trisbuffer (pH 8, 0.1 M). Theactivity was determined by monitoring the disappearance of NADPH spectrophotometrically at λ = 340 nm [Holmgren et al., Meth. Enzymol., 252:283-292].

SMILES strings stand for the structures. pKi: −log10 of the molar value.

Regarding `CC(=O)NC(CSC(=S)Nc1ccc(NC(=S)SCC(NC(C)=O)C(=O)O)cc1)C(=O)O` (stereo unspecified) [2-AAPA], the negative logarithm of the Ki (pKi) is 4.04.

Values taken from BindingDB's records for doi:10.3109/14756366.2011.649267 (South Dakota State University, 2013).
